Test results from article PMC7093416, “Selective USP7 inhibition elicits cancer cell killing through a p53-dependent mechanism” (Scientific Reports, 2020).

How the values were obtained:
[1] = target: T1, 60 DUBs in HEK293AD lysate (Homo sapiens, UniProt Q93009); assay: In situ DUB profiling: competitive ABPP with Bio-Ub-PA/Bio-Ub-VME and quantitative MS; type: binding; conditions: HEK293 crude cell extract, 5 hours pre-incubation
T1 construct: endogenous in cells; host or cells: HEK 293AD lysate
T1 sequence (Q93009 whole entry): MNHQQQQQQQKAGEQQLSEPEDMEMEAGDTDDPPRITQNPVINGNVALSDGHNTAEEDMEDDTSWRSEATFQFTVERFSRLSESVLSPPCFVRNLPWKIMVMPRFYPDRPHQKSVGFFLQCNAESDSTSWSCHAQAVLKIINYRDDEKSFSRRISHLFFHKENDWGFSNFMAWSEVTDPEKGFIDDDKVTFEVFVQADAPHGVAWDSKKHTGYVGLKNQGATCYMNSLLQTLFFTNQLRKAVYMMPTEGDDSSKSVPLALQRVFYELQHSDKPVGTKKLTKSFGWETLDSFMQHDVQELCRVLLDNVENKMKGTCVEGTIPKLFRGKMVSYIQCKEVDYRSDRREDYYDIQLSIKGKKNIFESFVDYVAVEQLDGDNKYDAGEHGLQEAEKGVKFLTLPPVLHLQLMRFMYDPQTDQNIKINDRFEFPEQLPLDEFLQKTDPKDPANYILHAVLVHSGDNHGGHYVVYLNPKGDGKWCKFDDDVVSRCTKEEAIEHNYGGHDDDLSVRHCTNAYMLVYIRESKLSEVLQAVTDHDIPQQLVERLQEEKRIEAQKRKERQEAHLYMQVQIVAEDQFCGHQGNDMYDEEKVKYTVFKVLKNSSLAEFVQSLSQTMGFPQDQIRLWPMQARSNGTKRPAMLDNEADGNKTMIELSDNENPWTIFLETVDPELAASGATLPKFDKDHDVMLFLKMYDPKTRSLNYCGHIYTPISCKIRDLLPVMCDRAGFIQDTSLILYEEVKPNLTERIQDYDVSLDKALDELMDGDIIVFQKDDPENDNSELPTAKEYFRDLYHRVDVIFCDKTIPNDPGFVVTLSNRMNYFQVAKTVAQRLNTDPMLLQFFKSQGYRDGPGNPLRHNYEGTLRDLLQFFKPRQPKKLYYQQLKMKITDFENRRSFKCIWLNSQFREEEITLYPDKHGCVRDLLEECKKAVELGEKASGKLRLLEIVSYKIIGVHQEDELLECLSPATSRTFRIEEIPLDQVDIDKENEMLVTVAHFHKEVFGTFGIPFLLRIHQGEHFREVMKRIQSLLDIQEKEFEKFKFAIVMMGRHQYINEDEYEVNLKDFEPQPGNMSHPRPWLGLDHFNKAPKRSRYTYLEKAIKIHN
Experimental: (§1) DUB profiling was performed using conditions similar to those in Lawson et al[63]. HEK 293AD cells were lysed using target engagement lysis buffer (50 mM Tris pH 8.0, 150 mM NaCl, 5 mM MgCl2, 0.5 mM EDTA, 0.5% NP-40, 10% glycerol, 1 mM TCEP, protease and phosphatase inhibitors), and the lysate was cleared by centrifugation. Samples were diluted to 2 mg/mL, and 1 mL lysate was incubated with the indicated concentration of XL177A for 5 hours at RT. Excess inhibitor was removed using a 30 K Amicon spin filter, then the resulting lysate was incubated with 1 μM each of Biotin-Ub-PA and Biotin-Ub-VME for 90 minutes at RT. SDS was added to a final concentration of 1.2%, and samples were heated to 80 °C for 5 minutes. After cooling to RT, 1X PBS was added to dilute the final SDS concentration to 0.2%. 100 μL streptavidin agarose slurry was added to each sample, followed by incubation at RT for 3 hours. After streptavidin enrichment, samples were washed vigorously (2×0.2% SDS, 3x PBS, 3x ddH2O). […]
(§2) To remove rapigest, recovered supernatants were acidified with 10% TFA, incubated at 37 °C for 45 minutes, and centrifuged at 14,000 rpm for 15 minutes at 4 °C. […] Eluted peptides were then analyzed by nanoflow LC-MS/MS as described[64] with a NanoAcquity UPLC system (Waters, Milford, MA) interfaced to a QExactive HF mass spectrometer (Thermofisher Scientific, San Jose, CA). […]

[2] = tested on: 60 DUBs in HEK293AD lysate; assay: as above; type: binding, human; conditions: in vitro and activity-based proteomic profiling
Experimental: as §1, §2

USP7 labeling by DUB ABPs [1]: significantly blocked USP7 labeling
SMILES: CN1CCN(CCC(=O)Nc2ccc3c(=O)n(CC4(O)CCN(C(=O)[C@@H](CCCNC(=O)c5ccc6c(Cl)c7c(nc6c5)CCCC7)Cc5ccccc5)CC4)cnc3c2)CC1 [XL177A]
selectivity for USP7 over closely related DUBs [2]: > 10 fold
